We go through 1 substance from patent US20030022872A1, “Vitamin d derivatives having substituents at the 2 alpha-position” (priority 2000, published 2003).

The target of the assay is T1, bovine thymus vitamin D receptor (VDR) (Bos taurus, UniProt Q28037).
T1 sequence (Q28037 1-426): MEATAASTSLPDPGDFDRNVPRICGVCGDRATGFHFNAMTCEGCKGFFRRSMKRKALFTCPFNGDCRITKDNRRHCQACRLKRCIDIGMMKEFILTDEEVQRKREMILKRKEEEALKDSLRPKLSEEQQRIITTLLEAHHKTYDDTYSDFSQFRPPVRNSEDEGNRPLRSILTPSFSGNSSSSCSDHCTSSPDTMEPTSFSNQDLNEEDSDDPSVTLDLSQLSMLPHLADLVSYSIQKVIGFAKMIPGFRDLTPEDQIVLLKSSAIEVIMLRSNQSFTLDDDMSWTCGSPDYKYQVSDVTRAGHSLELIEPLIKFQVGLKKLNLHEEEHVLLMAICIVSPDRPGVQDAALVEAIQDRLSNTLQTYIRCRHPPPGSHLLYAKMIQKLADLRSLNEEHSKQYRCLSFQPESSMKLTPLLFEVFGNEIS
The settings on record: relative value with 1α,25-dihydroxyvitamin D3 taken as 100; ratio of concentrations inhibiting 50% of [3H]-1α,25-dihydroxyvitamin D3 binding (0.1 nM tracer, overnight at 4° C.).

Procedure: Each of the resultant supernatants (500 μl) was mixed with ACS-II (9.5 ml) ([sequence], England) for radioactivity measurement.
X: relative VDR binding property of the vitamin D derivative of the present invention

For the substance “(5Z,7E)-(1S,2S,3R,20R)-2-(3-hydroxypropoxy)-9,10-seco-5,7,10(19)-cholestatriene-1,3,25-triol [Compound 16]”, the “relative VDR binding property X=(y/x)×100” value is 180.
